Converted amounts (≈) assume the structure as drawn. Read-outs that look alike come from different tables or passages of the source.
Assays:
Assay type in all cases: cell-based
[1] = Cytotoxicity assay (MTT) in macrophage J774 cells; details: mouse, J774 macrophage cells; also called safety index
Description: (§1) The study was carried out using macrophage J774 cells line (ATCC-USA). Cells were grown in Rosewell Park Memorial Institute Medium (RPMI) containing 10% fetal calf serum (FCS) and supplemented with 75 mg/liter penicillin, 100 mg/liter streptomycin, 110 mg/liter Sodium pyruvate, 2.38 gm/liter HEPES, 0.05 mM 2 β-mercaptoethanol, and 2 gm/liter NaHCO3, in a humidified atmosphere in 5% CO2 at 37° C., and were sub-cultured at 1:4 ratio once a week.
(§2) Cells were plated at a density of 3×10^4 cells/cm^2 and maintained in culture medium for 12 hours. Cells were seeded onto 96-well flat bottom plates and FCS was reduced to 5% for the experiment. Stock solutions of compounds IA1 to IIC10 were prepared fresh to avoid oxidation. Cells were incubated with the compounds (40 μg/ml) for 24 hrs.
(§3) After the completion of incubation, the medium was removed and cell viability was evaluated by assaying for the ability of functional mitochondria to catalyze the reduction of 3-(4,5-dimethylthiazol-2-yl)-2,5-diphenyltetrazolium bromide (MTT) to form formazan salt by mitochondrial dehydrogenases, and determined by Elisa reader at 450 nm (Multiskan Spectrum; Thermo Electron Corporation, USA). Percentage cytotoxicity was calculated with respect to the untreated cells.

[2] = test system: macrophage J774 cells line; test: Cytotoxicity assay (MTT) in macrophage J774 cells; details: J774 cells, 24 hrs, MTT
Description: as §1, §2, §3

[3] = test system: M. tuberculosis H37Rv (ATCC 27294); test: MIC by broth dilution method, M. tuberculosis H37Rv; details: Mycobacterium tuberculosis
[4] = 504 h, broth dilution, 3 weeks, read-out: MIC M. tb H37Rv
[5] = read-out: MIC value, text summary: sensitive H37Rv as well as MDR and XDR strains of M. tuberculosis

| Structure (SMILES) | selectivity ratio at 24 h, 40 μg/ml [1] | Cytotoxicity [2] [µg/mL] | MIC [3, 4] [µg/mL] | MIC [3, 5] [µg/mL] | MIC ([3]; 504 h, read-out: MIC M. tb H37Rv, broth dilution, 3 weeks) [µg/mL] |
| --- | --- | --- | --- | --- | --- |
| C[C@]1(COc2ccc(-n3cc(-c4ccccc4)nn3)cc2)Cn2cc([N+](=O)[O-])nc2O1 [IA1] | > 10 | >40 | 4 (≈ 9.56 µM) |  |  |
| CCc1ccc(-c2cn(-c3ccc(OC[C@@]4(C)Cn5cc([N+](=O)[O-])nc5O4)cc3)nn2)cc1 [IA2, (R)-2-{4-[4-(4-ethylphenyl)-1H-1,2,3-triazol-1-yl]phenoxymethyl}-2,3-dihydro-2-methyl-6-nitroimidazo[2,1-b]oxazole] | > 10 | >40 | 2 (≈ 4.48 µM) |  |  |
| C[C@]1(COc2ccc(-n3cc(-c4ccc(F)cc4)nn3)cc2)Cn2cc([N+](=O)[O-])nc2O1 [IA3, (R)-2-{4-[4-(4-fluorophenyl)-1H-1,2,3-triazol-1-yl]phenoxymethyl}-2,3-dihydro-2-methyl-6-nitroimidazo[2,1-b]oxazole] | > 10 | >40 | 0.25 (≈ 0.573 µM) | < 1 |  |
| C[C@]1(COc2ccc(-n3cc(-c4ccc(OC(F)(F)F)cc4)nn3)cc2)Cn2cc([N+](=O)[O-])nc2O1 [IA5, (R)-2-{4-[4-(4-trifluoromethoxyphenyl)-1H-1,2,3-triazol-1-yl]phenoxymethyl}-2,3-dihydro-2-methyl-6-nitroimidazo[2,1-b]oxazole] | > 10 | >40 | 0.5 (≈ 0.995 µM) | < 1 |  |
| C[C@]1(COc2ccc(-n3cc(-c4ccccc4C(F)(F)F)nn3)cc2)Cn2cc([N+](=O)[O-])nc2O1 [IA6, (R)-2-{4-[4-(2-trifluoromethylphenyl)-1H-1,2,3-triazol-1-yl]phenoxymethyl}-2,3-dihydro-2-methyl-6-nitroimidazo[2,1-b]oxazole] | > 10 | >40 | 1 (≈ 2.06 µM) |  |  |
| COc1ccc(-c2cn(-c3ccc(OC[C@@]4(C)Cn5cc([N+](=O)[O-])nc5O4)cc3)nn2)cc1 [IA11, (R)-2-{4-[4-(4-methoxyphenyl)-1H-1,2,3-triazol-1-yl]phenoxymethyl}-2,3-dihydro-2-methyl-6-nitroimidazo[2,1-b]oxazole] | > 10 | >40 | 0.25 (≈ 0.557 µM) | < 1 |  |
| C[C@]1(COc2ccc(-n3cc(-c4cccc(OC(F)(F)F)c4)nn3)cc2)Cn2cc([N+](=O)[O-])nc2O1 [IA12, (R)-2-{4-[4-(3-trifluoromethoxyphenyl)-1H-1,2,3-triazol-1-yl]phenoxymethyl}-2,3-dihydro-2-methyl-6-nitroimidazo[2,1-b]oxazole] | > 10 | >40 | 0.5 (≈ 0.995 µM) | < 1 |  |
| C[C@]1(COc2ccc(-n3cc(-c4cccc(C(F)(F)F)c4)nn3)cc2)Cn2cc([N+](=O)[O-])nc2O1 [IA13, (R)-2-{4-[4-(3-trifluoromethylphenyl)-1H-1,2,3-triazol-1-yl]phenoxymethyl}-2,3-dihydro-2-methyl-6-nitroimidazo[2,1-b]oxazole] | > 10 | >40 | 2 (≈ 4.11 µM) |  |  |
| C[C@]1(COc2ccc(-n3cc(-c4ccccn4)nn3)cc2)Cn2cc([N+](=O)[O-])nc2O1 [IA14] | > 10 | >40 | 2 (≈ 4.77 µM) |  |  |
| CCCCCc1cn(-c2ccc(OC[C@@]3(C)Cn4cc([N+](=O)[O-])nc4O3)cc2)nn1 [IA15, (R)-2-{4-[4-pentyl-1H-1,2,3-triazol-1-yl]phenoxymethyl}-2,3-dihydro-2-methyl-6-nitroimidazo[2,1-b]oxazole] | > 10 | >40 | 32 (≈ 77.6 µM) |  |  |
| C[C@]1(COc2ccccc2-n2cc(-c3ccc(F)cc3F)nn2)Cn2cc([N+](=O)[O-])nc2O1 [IA24, (R)-2-{2-[4-(2,4-difluorophenyl)-1H-1,2,3-triazol-1-yl]phenoxymethyl}-2,3-dihydro-2-methyl-6-nitroimidazo[2,1-b]oxazole] | > 10 | >40 | 1 (≈ 2.2 µM) |  |  |
| C[C@]1(COc2ccc(-n3cc(COc4ccc(F)cc4)nn3)cc2)Cn2cc([N+](=O)[O-])nc2O1 [IA26] | > 10 | >40 | 0.5 (≈ 1.07 µM) | < 1 |  |
| C[C@]1(COc2ccc(-n3cc(COc4ccc(C(F)(F)F)cc4)nn3)cc2)Cn2cc([N+](=O)[O-])nc2O1 [IA27] | > 10 | >40 | 0.25 (≈ 0.484 µM) | < 1 |  |
| C[C@]1(COc2ccc(-n3cc(COc4ccccc4F)nn3)cc2)Cn2cc([N+](=O)[O-])nc2O1 [IA28] | > 10 | >40 | 0.12 (≈ 0.257 µM) | < 1 |  |
| Cc1ccc(OCc2cn(-c3ccc(OC[C@@]4(C)Cn5cc([N+](=O)[O-])nc5O4)cc3)nn2)cc1 [IA29] | > 10 | >40 | 32 (≈ 69.2 µM) |  |  |
| CC(C)c1ccc(OCc2cn(-c3ccc(OC[C@@]4(C)Cn5cc([N+](=O)[O-])nc5O4)cc3)nn2)cc1 [IA30] | > 10 | >40 | 32 (≈ 65.2 µM) |  |  |
| CCc1ccc(OCc2cn(-c3ccc(OC[C@@]4(C)Cn5cc([N+](=O)[O-])nc5O4)cc3)nn2)cc1 [IA31] | > 10 | >40 | 0.25 (≈ 0.525 µM) | < 1 |  |
| CCC(C)c1ccc(OCc2cn(-c3ccc(OC[C@@]4(C)Cn5cc([N+](=O)[O-])nc5O4)cc3)nn2)cc1 (stereo partly drawn) [IA32] | > 10 | >40 | 0.12 (≈ 0.238 µM) | < 1 |  |
| C[C@]1(COc2cccc(-n3cc(COc4ccc(F)cc4)nn3)c2)Cn2cc([N+](=O)[O-])nc2O1 [IA34] | > 10 | >40 | 0.12 (≈ 0.257 µM) | < 1 |  |
| C[C@]1(COc2ccccc2-n2cc(COc3ccc(OC(F)(F)F)cc3)nn2)Cn2cc([N+](=O)[O-])nc2O1 [IA39] | > 10 | >40 | 1 (≈ 1.88 µM) |  |  |
| C[C@]1(COc2ccccc2-n2cc(COc3ccc(F)cc3)nn2)Cn2cc([N+](=O)[O-])nc2O1 [IA40] | > 10 | >40 | 4 (≈ 8.58 µM) |  |  |
| C[C@]1(COc2ccccc2-n2cc(COc3ccc(C(F)(F)F)cc3)nn2)Cn2cc([N+](=O)[O-])nc2O1 [IA41] | > 10 | >40 | 2 (≈ 3.87 µM) |  |  |
| C[C@]1(COc2ccccc2-n2cc(COc3ccccc3F)nn2)Cn2cc([N+](=O)[O-])nc2O1 [IA42] | > 10 | >40 | 2 (≈ 4.29 µM) |  |  |
| C[C@]1(COc2ccc(-c3cc(-c4ccccc4)on3)cc2)Cn2cc([N+](=O)[O-])nc2O1 [IC1, (R)-2-{4-[5-phenylisoxazol-3-yl]phenoxymethyl}-2,3-dihydro-2-methyl-6-nitroimidazo[2,1-b]oxazole] | > 10 | >40 |  | < 1 | 0.06 (≈ 0.143 µM) |
| CN(c1ccccc1)S(=O)(=O)c1ccc(OC[C@@]2(C)Cn3cc([N+](=O)[O-])nc3O2)cc1 [IIB4, (R)—N-methyl-4-{(2-methyl-6-nitro-2,3-dihydroimidazo[2,1-b]oxazol-2-yl)methoxy}-N-phenylbenzenesulfonamide] |  | >40 | 4 (≈ 9 µM) |  |  |
| Cc1ccc(N(C)S(=O)(=O)c2ccc(OC[C@@]3(C)Cn4cc([N+](=O)[O-])nc4O3)cc2)cc1 [IIB5, (R)—N-methyl-4-{(2-methyl-6-nitro-2,3-dihydroimidazo[2,1-b]oxazol-2-yl)methoxy}-N-(p-tolyl)benzenesulfonamide] |  | >40 | 4 (≈ 8.72 µM) |  |  |
| CN(c1ccc(C(F)(F)F)cc1)S(=O)(=O)c1ccc(OC[C@@]2(C)Cn3cc([N+](=O)[O-])nc3O2)cc1 [IIB6, (R)—N-methyl-4-{(2-methyl-6-nitro-2,3-dihydroimidazo[2,1-b]oxazol-2-yl)methoxy}-N-(p-trifluoromethylphenyl)benzenesulfonamide] |  | >40 | 1 (≈ 1.95 µM) |  |  |
| C[C@]1(COc2ccc(S(=O)(=O)N3CCN(c4ccccc4)CC3)cc2)Cn2cc([N+](=O)[O-])nc2O1 [IIC1, (R)-2-{4-(4-phenylpiperazin-1-yl)sulfonylphenoxymethyl}-2,3-dihydro-2-methyl-6-nitroimidazo[2,1-b]oxazole] |  | >40 | 1 (≈ 2 µM) |  |  |
| C[C@]1(COc2ccc(S(=O)(=O)N3CCN(c4ccc(F)cc4)CC3)cc2)Cn2cc([N+](=O)[O-])nc2O1 [IIC2, (R)-2-{4-[4-(4-fluorophenyl)piperazin-1-yl]sulfonylphenoxymethyl}-2,3-dihydro-2-methyl-6-nitroimidazo[2,1-b]oxazole] |  | >40 | 2 (≈ 3.86 µM) |  |  |

Source: US9845330B2, “6-nitro-2,3-dihydroimidazo[2,1-b]oxazoles and a process for the preparation thereof” (priority 2013, dated 2017)
